In PMC6872521, “An in silico—in vitro Pipeline Identifying an HLA-A^*02:01^+ KRAS G12V^+ Spliced Epitope Candidate for a Broad Tumor-Immune Response in Cancer Patients” (Frontiers in Immunology, 2019):

Experiments:
[1] = system: TAPs (transporters associated with antigen processing); test: TAP assay: competition with a fluorescent reference peptide for TAP-dependent translocation into microsomes; assay type: biochemical; conditions: competition with fluorescent tracer peptide; microsomes from LCL721 cells; 10 mM ATP mixture; 20 min at 37°C; fluorescence read-out; signal without ATP subtracted; result in words (EC50 values only in Figure 6B)
Experimental: The transport efficiency of target peptides (Supplementary Table 2) into the ER lumen mediated by TAPs was carried out as previously described ([29]) although some modifications were introduced. These include the use of a fluorescent peptide tracer and the use of microsomes rather than Streptolysin O permeabilized cells. Briefly, peptides were dissolved in DMSO and different concentrations were distributed in a final volume of 10 μl DMSO. At the same time, a mixture of 10 mM ATP, 100 mM Tris-HCl pH7.5 and 5 mM MgCl2 and fluorescent tracer peptide was prepared. 60 μl of this mixture was added to the 10 μl competing peptide mixture to a final volume of 70 μl. This was prewarmed to 37°C and 30 μl of pre-warmed microsomes were added. Microsomes were derived from LCL721 cells, as previously described ([29]).
The mixture was incubated for 20 min at 37°C followed by cell lysis with lysis mixture (0.5% TX100, 5 mM MgCl2 in 100 mM Tris-HCl pH7.5) at 4°C. After at least 30 min incubation at 4°C, DNA was pelleted and the supernatant transferred to a new vial including ConA-beads. After at least 30 min incubation on ice, cells were washed four times with lysis mixture and the last time with 100 mM Tris-HCl pH7.5 before transfer to 96 wells plates (Corning) followed by fluorescence measurements in a plate reader. To detect background signals, a sample without competing peptide and ATP was included and fully performed as described above. This signal was subtracted from the detected signal.
To quantify the efficiency of peptide transport into the ER lumen by TAP, we measured the competition between the target peptides and a fluorescent reference peptide for TAP-dependent translocation into free microsomes.

[2] = system: PBMCs of pancreatic adenocarcinoma patients; conditions: cited from earlier work
[3] = system: Transduced human CD8+ T cells; conditions: TCRs isolated from humanized ABabDII mice, transduced into human PBMCs; cited from earlier work
Excerpt: Our pipeline identifies epitope candidates which shall further be validated by isolating specific CTL clones and their TCRs and using them to confirm that the epitope candidates are produced in cellulo and eventually in vivo. There are several strategies to this end. For example, the KRAS5−6/8−14 spliced epitope candidate here identified has been validated in collaboration with Blankenstein et al. ([56]). Specific TCRs have been isolated from humanized ABabDII mice ([57]), cloned into expressing vectors and transduced into human PBMCs.

[4] = molecular target: HLA-A*02:01 complex (Homo sapiens, UniProt P04439, D140Y/D185E/D98H/E176V/E277Q/G131W/G231S/I119V/I121R/I166T/I218V/L300P/L318F/N151K/N90K/P208A/P217A/Q86G/Q94H/R138H/R169H/T345S); test: HLA-A*02:01-peptide binding affinity measured with purified HLA-I molecules; conditions: cell-free system, values only in Figure 6C
Experimental: The binding affinity between theoretical spliced and non-spliced peptides and HLA-A^*02:01 was predicted using the NetMHCPan 3.0 algorithm ([30]). […] The binding affinity between the synthetic peptides and HLA-A^*02:01 complexes was measured using purified HLA-I molecules, as described elsewhere ([10]).
Once a peptide arrives in the ER lumen, its binding affinity to the specific HLA-I molecule determines whether it will ultimately be presented. Therefore, we measured the binding affinity of the same six peptides previously tested in the TAP assay and the HLA-A^*02:01 complex in a cell-free system utilizing purified HLA-I molecules.

Compound	Transport efficiency into the ER lumen mediated by TAPs [1]	Recognition by PBMCs of pancreatic adenocarcinoma patients [2]	Recognition of the epitope by TCR-transduced human CD8+ T cells [3]	Binding to HLA-A*02:01 complex (result in words) [4]
YLVVVGAVGV [peptide #1]	transported by TAP as efficiently as the non-spliced epitope candidate			
CC(C)C[C@H](NC(=O)[C@@H](N)CCCCN)C(=O)N[C@H](C(=O)N[C@H](C(=O)N[C@H](C(=O)NCC(=O)N[C@@H](C)C(=O)N[C@H](C(=O)NCC(=O)N[C@H](C(=O)O)C(C)C)C(C)C)C(C)C)C(C)C)C(C)C [KRAS5−14 G12V]		recognized by PBMCs		
KLVVVAVGV [peptide #2]	not competing with the reference peptide			
[KL][VVGAVGV] [KRAS5−6/8−14 G12V]	efficiently transported by TAPs		selectively recognized	efficiently bind
